The target in data set [1] is Factor XIa (Homo sapiens (Human), UniProt P03951). The data set can be described thus: Factor XIa enzyme inhibition assay (dose response, fluorogenic AMC substrate). Type of data set: biochemical. Conditions: read-out: hFXIa IC50. The gist of the method: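 Fluorogenic progress curves (30 min, 1-min reads, 30° C) were recorded for 0.25 nM FXIa cleaving 50 μM Glp-Pro-Arg-AMC in Hepes pH 7.4 buffer with NaCl and Tween 20. Compounds were serially two-fold diluted, and IC50 was fitted with a Hill equation.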
Factor XIa, sequence (P03951 388-625): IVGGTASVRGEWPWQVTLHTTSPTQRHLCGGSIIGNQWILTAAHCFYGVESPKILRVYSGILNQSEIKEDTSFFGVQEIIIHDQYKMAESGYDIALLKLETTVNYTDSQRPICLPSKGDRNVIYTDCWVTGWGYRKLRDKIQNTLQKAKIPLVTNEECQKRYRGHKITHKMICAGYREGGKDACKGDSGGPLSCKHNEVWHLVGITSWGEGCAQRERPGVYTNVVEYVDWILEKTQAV
Factor XIa, sequence (P03951 19-387 partner): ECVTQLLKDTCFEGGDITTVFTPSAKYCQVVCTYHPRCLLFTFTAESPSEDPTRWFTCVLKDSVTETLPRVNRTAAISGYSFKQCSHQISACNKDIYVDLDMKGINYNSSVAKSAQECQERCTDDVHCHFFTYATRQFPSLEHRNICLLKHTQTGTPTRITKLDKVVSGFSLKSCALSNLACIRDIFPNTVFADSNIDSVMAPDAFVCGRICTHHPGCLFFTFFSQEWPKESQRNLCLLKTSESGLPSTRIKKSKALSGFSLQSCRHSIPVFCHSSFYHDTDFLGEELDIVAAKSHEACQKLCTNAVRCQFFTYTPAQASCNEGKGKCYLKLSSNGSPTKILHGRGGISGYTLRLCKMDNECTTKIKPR

The target in data set [2] is Factor Xa (Homo sapiens (Human), UniProt P00742). The data set can be described thus: Dose response assay for protease inhibitors: Factor Xa. Type of data set: biochemical. Conditions: selectivity, Factor Xa over Factor XIa. The gist of the method:
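Glp-Pro-Arg-AMC substrate (thrombin, trypsin) or Pro-Phe-Arg-AMC/Boc-Leu-Gly-Arg-AMC (Factor Xa), diluted to 100 μM, in 20 mM Hepes pH 7.4, 150 mM NaCl, 0.02% Tween 20; enzyme diluted to 0.5 nM before addition. Two-fold serial compound dilutions; kinetic reads at 30° C. Data yield IC50 and Kon.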

The nature of data set [3]: Caco-2 cell permeability assay. Type of data set: in vitro ADME, human. Conditions: human, 37° C.; for Papp A→B at 60 min, 10 μM: Caco-2, apical to basolateral; for Papp B→A at 40 min, 10 μM: Caco-2, basolateral to apical. The method, boiled down:
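Caco-2 monolayers (days 21-25 post-seeding) received 10 μM compound in HBSS-MES pH 6.5 or HBSS-HEPES pH 7.4 (1% DMSO) at 37 °C, for 60 min A-B or 40 min B-A. Donor and receiver samples were quantified by HPLC-MS/MS (SRM), and Papp and recovery were calculated.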
(In general: Caco-2 cells form a polarised layer with tight junctions and transporters.)

Data set [4] is described as follows: Plasma protein binding by equilibrium dialysis. Type of data set: in vitro ADME. The settings on record: both sexes, pH 7.4, pooled human plasma, 4 hours at 37° C., read-out: PPB (%). The method, boiled down: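 Pooled mixed-gender human plasma spiked with compound at 10 μM was dialysed against PBS pH 7.4 for 4 h at 37°C. Both compartments were quantified by HPLC-MS/MS, and % bound was calculated from plasma vs buffer peak areas.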

Factor Xa, sequence (P00742 235-488): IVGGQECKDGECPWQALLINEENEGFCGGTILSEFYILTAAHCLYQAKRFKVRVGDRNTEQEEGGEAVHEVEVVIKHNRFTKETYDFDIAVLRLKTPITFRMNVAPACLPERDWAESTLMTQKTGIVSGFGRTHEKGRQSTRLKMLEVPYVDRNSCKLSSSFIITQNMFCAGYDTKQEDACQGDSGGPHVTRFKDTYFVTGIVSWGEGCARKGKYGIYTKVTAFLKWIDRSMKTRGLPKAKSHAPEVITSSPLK
Factor Xa, sequence (P00742 41-179 partner): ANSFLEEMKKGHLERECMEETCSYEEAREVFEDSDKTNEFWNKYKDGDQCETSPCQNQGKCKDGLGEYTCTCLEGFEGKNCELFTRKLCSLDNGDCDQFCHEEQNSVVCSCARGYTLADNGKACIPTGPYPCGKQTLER

Regarding `CC[C@@H](NC(=O)N1C(=O)[C@H](Cc2ccnc(N)c2)[C@H]1C(=O)N(C)c1ccn(C)n1)c1cccc(Cl)c1` [Compound 1-91, (2S,3R)-3-((2-aminopyridin-4-yl)methyl)-N2-(1-methyl-1H-pyrazol-3-yl)-N1-((R)-1-(3-chlorophenyl)propyl)-N2-methyl-4-oxoazetidine-1,2-dicarboxamide], the IC50 in data set [1] is less than 10 nM. Moreover, the “Ratio: FXa/FXIa” value in data set [2] is on record as “H (“H” indicates 101-1000)”. In data set [3], this compound registered a Papp A→B at 60 min, 10 μM of less than 10 ×10⁻⁶ cm/s and a Papp B→A at 40 min, 10 μM of 11 to 30 ×10⁻⁶ cm/s. Moreover, the fraction unbound at 4 h, 10 μM in data set [4] fell in the range of 0.1 to 0.5.
The corresponding values for `CC[C@@H](NC(=O)N1C(=O)[C@H](Cc2ccnc(N)c2)[C@H]1C(=O)N(C)c1ccnn1C)c1ccccc1` [Compound 1-92, (2S,3R)-3-((2-aminopyridin-4-yl)methyl)-N2-(1-methyl 1H-pyrazol-5-yl)-N1-((R)-1-phenylpropyl)-N2-methyl-4-oxoazetidine-1,2-dicarboxamide] are less than 10 nM, “I (“I” indicates > 500)”, less than 10 ×10⁻⁶ cm/s, 31 to 50 ×10⁻⁶ cm/s and 0.1 to 0.5.
The corresponding values for `CC[C@@H](NC(=O)N1C(=O)[C@H](Cc2cc(C)nc(N)c2)[C@H]1C(=O)N(C)c1nccn1C)c1cc(F)ccc1F` [Compound 1-137, (2S,3R)-3-((2-amino-6-methylpyridin-4-yl)methyl)-N2-(1-methyl-1H-imidazol-2-yl)-N1-((R)-1-(2,5-difluorophenyl)propyl)-N2-methyl-4-oxoazetidine-1,2-dicarboxamide] are less than 10 nM, “I (“I” indicates > 500)”, less than 10 ×10⁻⁶ cm/s, 11 to 30 ×10⁻⁶ cm/s and 0.05 to 0.09.
For `CC[C@@H](NC(=O)N1C(=O)[C@H](Cc2cc(C)nc(N)c2)[C@H]1C(=O)N(C)c1ccnn1C)c1ccc(C)c(C)c1` [Compound 1-152, (2S,3R)-3-((2-amino-6-methylpyridin-4-yl)methyl)-N2-(1-methyl-1H-pyrazol-5-yl)-N1-((R)-1-(3,4-dimethylphenyl)propyl)-N2-methyl-4-oxoazetidine-1,2-dicarboxamide], the IC50 in data set [1] was less than 10 nM. In addition, the “Ratio: FXa/FXIa” value in data set [2] was “I (“I” indicates > 500)”. Also, in data set [3], the Papp A→B at 60 min, 10 μM was less than 10 ×10⁻⁶ cm/s and the Papp B→A at 40 min, 10 μM lay within 11 to 30 ×10⁻⁶ cm/s. Besides, the fraction unbound at 4 h, 10 μM in data set [4] was 0.1 to 0.5.
The corresponding values for `CC[C@@H](NC(=O)N1C(=O)[C@H](Cc2cc(C)nc(N)c2)[C@H]1C(=O)N(C)c1ccnn1C)c1ccc(C)c(F)c1` [Compound 1-155, (2S,3R)-3-((2-amino-6-methylpyridin-4-yl)methyl)-N2-(1-methyl-1H-pyrazol-5-yl)-N1-((R)-1-(3-fluoro-4-methylphenyl)propyl)-N2-methyl-4-oxoazetidine-1,2-dicarboxamide] are less than 10 nM, “I (“I” indicates > 500)”, less than 10 ×10⁻⁶ cm/s, 11 to 30 ×10⁻⁶ cm/s and 0.1 to 0.5.
The matching figures for `CC[C@@H](NC(=O)N1C(=O)[C@H](Cc2cc(C)nc(N)c2)[C@H]1C(=O)N(C)c1ccnn1C)c1ccc(F)c(F)c1` [Compound 1-158, (2S,3R)-3-((2-amino-6-methylpyridin-4-yl)methyl)-N2-(1-methyl-1H-pyrazol-5-yl)-N1-((R)-1-(3,4-difluorophenyl)propyl)-N2-methyl-4-oxoazetidine-1,2-dicarboxamide]: less than 10 nM, “I (“I” indicates > 500)”, less than 10 ×10⁻⁶ cm/s, 11 to 30 ×10⁻⁶ cm/s and 0.05 to 0.09.

As usually defined, the IC50 is the concentration that gives 50% inhibition. By Papp A→B is commonly meant how fast a substance crosses the layer from the apical side. In general, Papp B→A refers to the apparent permeability from the basolateral to the apical side of a cell layer.

For the origin of these results see patent US11691962B2 (eXIthera Pharmaceuticals, Inc., priority 2018, dated 2023).
